Measurements reported in patent publication US7419657B2, “Treatment of atherosclerotic disorders” (priority 2001, dated 2008).
Read-outs that look alike come from different tables or passages of the source.

Legend:
Chlamydia = format: biochemical, Chlamydia pneumoniae or Chlamydia Psittaci
lesion IgG = experiment: LDL peroxidation by lesion IgG with tested antioxidants; format: biochemical, human
anti-Chlamydia abzymes = format: biochemical, human; details: for Lipid oxidising activity of anti-Chlamydia abzymes: in DMSO, control 61; for Anti-Abzyme activity: control 21.7
[1] = LDL 480 μg of protein, +0.1 M antioxidant, control 0.49 ± 0.023

CCCCCCCCCCCCOS(=O)(=O)[O-].[Na+] [SDS] was tested, and the “lipid oxidising reaction in the test system” value (“lipid oxidising reaction” below) (Chlamydia) was “no lipid oxidising reaction”.
N.N.O=S(=O)(O)O [ammonium sulphate] was tested, and the “lipid oxidising reaction” value (Chlamydia) was “no lipid oxidising reaction”.
O=C1O[C@H]([C@@H](O)CO)C(O)=C1O [ascorbic acid] was tested, and the “Level of MDA production by 0.82 μg of lesion IgG” value (from here on “Level of MDA production”) (lesion IgG) was 0 µM.
O=C(O)c1ccccc1 [benzole acid] was tested, and the “Level of MDA production” value (lesion IgG; [1]) was 0 µM.
C=O [formalin] was tested, and the “lipid oxidising reaction” value (Chlamydia) was “no lipid oxidising reaction”.
O=C[O-].[Na+] [sodium formate] was tested, and the “Level of MDA production” value (lesion IgG; [1]) was 0 µM.
For Cc1c(C)c2c(c(C)c1O)CC[C@@](C)(CCC[C@H](C)CCC[C@H](C)CCCC(C)C)O2 [α-Tocopherol], the “Lipid oxidising activity of anti-Chlamydia abzymes” value (anti-Chlamydia abzymes; 1 μM) was 15 μM MDA/ml and the “Lipid oxidising activity of anti-Chlamydia abzymes” value (anti-Chlamydia abzymes; 10 μM) was 0 μM MDA/ml.
For Heparin, the Anti-Abzyme activity (anti-Chlamydia abzymes; drug 0.1 mg/ml) was 19.7 μM MDA/ml.
With Igepal CA-630 the “development of lipid oxidation reaction” value (Chlamydia) was “completely abrogated” and the “oxidation of the lipids in the bacteria by the extracted abzymes” value (Chlamydia) was “abolished”.
For Nadroparin Calcium, the Anti-Abzyme activity (anti-Chlamydia abzymes; drug 95 UI) was 20.5 μM MDA/ml and the Anti-Abzyme activity (anti-Chlamydia abzymes; drug 465 UI) was 12.8 μM MDA/ml.
Triton X-100 was tested, and the “development of lipid oxidation reaction” value (Chlamydia) was “completely abrogated” and the “oxidation of the lipids in the bacteria by the extracted abzymes” value (Chlamydia) was “abolished”.
